Our source for the IC50, in vivo effect and efflux ratio values is US8476264B2, “N-(3-(2-amino-6,6-difluoro-4,4A,5,6,7,7A-hexahydro-cyclopenta[E][1,3]oxazin-4-yl)-phenylamides as BACE1 inhibitors” (Hoffmann-La Roche Inc., priority 2011, dated 2013).

The target of one series is T1, CYP2C9 (Homo sapiens, UniProt P11712).
T1 construct: 0.2 mg/ml pooled human liver microsomes; from tissue; host or cells: pooled human liver microsomes
Nature of the series: CYP inhibition assay, CYP2C9. To be noted: human liver microsomes, diclofenac 4' hydroxylase; read-out: CYP IC50 2C9. The series is classed as in vitro ADME. The protocol: Inhibition of cytochromes P450 (CYPs) 2C9, 2D6 and 3A4 was assessed using human liver microsomes and CYP-selective substrate metabolism reactions. 50 μl incubations were made up containing (finally) 0.2 mg/ml pooled human liver microsomes, 5 μM substrate (diclofenac for CYP2C9 [4′ hydroxylase], dextromethorphan for CYP2D6 [O-demethylase] or midazolam for CYP3A4 [1′ hydroxylase]), 0.25 μL DMSO containing test inhibitor and NADPH regenerating system. Test inhibitor concentrations of 50, 16.7, 5.6, 1.9, 0.6 and 0.2 μM were assessed in singlicate. Incubations were pre-warmed to 37° C. for 10 minutes before initiation by addition of NADPH regenerating system. Incubations were quenched after 5 minutes (20 minutes for dextromethorphan) by addition of 50 μl cold acetonitrile containing 20 ng/ml 4-OH-diclofenac-13C6, 20 ng/mL dextrorphan-D3 and 20 ng/mL 1-OH-midazolam-D4. Quenched incubates were stored at −20° C. for at least 1 hour before centrifugation (20,000×g, 20 minutes). Supernatants were removed and diluted 1:1 with water prior to analysis using a RapidFire sample injector system and API4000 mass spectrometer. Peak areas for substrate, metabolite and stable-labelled metabolite standard were determined using MS/MS. The peak area ratios between the metabolite generated by the enzymatic reaction and the internal standard were used in subsequent calculations. The percentage of (DMSO) control activity was calculated for each incubate and IC50 values estimated by non-linear regression. Sulfaphenazole, quinidine or ketoconazole were tested in each CYP2C9, CYP2D6 or CYP3A4 inhibition experiment, respectively, to ensure assay sensitivity and reproducibility. (Validated assays for human cytochrome P450 activities, R. L. Walsky and R. S. Obach, Drug Metabolism and Disposition 32: 647-660, 2004. and S. Fowler and H. Zhang, The AAPS Journal, Vol. 10, No. 2, 410-424, 2008.)

The nature of the next series: in vivo effect. The following applies: % of control @ 30 mg/kg p.o.
Series [1] deals with T2, P-gp (P-glycoprotein, human MDR1) (Homo sapiens, UniProt P08183).
T2 construct: host or cells: LLC-PK1 (porcine kidney epithelial) cells, L-MDR1
Put plainly: P-gp (P-glycoprotein) assay, bidirectional transcellular transport in LLC-PK1 and L-MDR1 cells. In kind it is in vitro ADME. The following applies: ER = PappBA/PappAB, read-out: P-gp human, efflux ratio: substrate category. The protocol: P-gp (P-glycoprotein) Assay Cell Lines Used for Transport Experiments
The LLC-PK1 cell line (ATCC #CL-101) is a porcine kidney epithelial cell line. The MDR1 (Human multidrug resistance protein 1) transfected cell lines were obtained from Dr. A. Schinkel, The Netherlands Cancer Institute (Amsterdam, The Netherlands). All cell lines were cultured on permeable inserts (96-insert plates Millipore, 0.11 cm^2 area, pore size 0.4 μm) at 0.73*10^6 cells/ml. Transport measurements were performed at day 4 after seeding. Tightness of the cell monolayer was controlled via the permeability of the extracellular marker lucifer yellow (10 μM).
In Vitro Transport Experiments
Bidirectional transcellular transport using LLC-PK1 and L-MDR1 LLC-PK1 cells exogenously expressing the human MDR1)
The experiments were performed on a TECAN automated liquid handling system. Briefly, medium was removed from all compartments and the medium of receiver side was replaced with culture medium. The trans-cellular transport measurements were initiated by adding the substrate together with extracellular marker lucifer yellow to the donor side. Inhibitors were added to both sides (1 μM elacridar). Transport experiments were performed both in the basolateral-to-apical and apical-to-basolateral directions with 3 wells each. The plates were incubated at 37° C. and 5% CO2 in a Liconic incubator. Samples were taken from the donor and the opposite (acceptor) side after 2 hours incubation. Concentrations of substrate in both compartments were determined by scintillation counting (digoxin) or by LC-MS/MS. The extracellular marker (lucifer yellow) was quantified using a spectrafluor plus reader at 430/535 nm (Ex/Em). In each experiment 3 different inserts were used for each condition and a mean was calculated.
Bidirectional transcellular transport using LLC-PK1 and L-MDR1 cells
For the transcellular transport, the following equation was used for data evaluation: […]
Where Papp, A, C0, and dQ/dt represent the apparent permeability, the filter surface area, the initial concentration, and the amount transported per time period, respectively.
Transport efflux ratios (ER) were calculated as follows: […]
Where PappBA is the permeability value in the basolateral-to-apical direction, and PappAB the permeability value in the apical-to-basolateral direction. Papp were not corrected for flux of the extracellular marker lucifer yellow, which was used to assess the quality of the cell monolayers.

Series [2] deals with T3, cathepsin D (from human liver) (Homo sapiens, UniProt P07339).
T3 construct: cathepsin D (from human liver, Calbiochem) diluted in assay buffer; purchased Calbiochem; host or cells: purified from human liver
Put plainly: Cathepsin D fluorescent substrate kinetic assay. In kind it is biochemical. To be noted: pH 5.5, substrate […]-MR121. From the text:
Cathepsin D and Cathepsin E Fluorescent Substrate Kinetic Assays
The MR121 fluorescence assays described below are based on the fact that MR121 forms a non-fluorescent ground state complex with tryptophan. In solution this formation occurs at millimolar concentrations of tryptophan. The mechanism can be used to design a generic biochemical assay for proteases. A substrate peptide is labeled at the N-terminus with tryptophan and at the C-terminus with the fluorophore MR121 (for cathepsin D the 10 amino acid peptide […]-MR121 was used; for cathepsin E, MR121-[…] was used). In absence of protease activity, the substrates remain intact and the MR121 fluorescence is reduced by the high local Trp-concentration. If the substrates are cleaved by the enzymes the MR121 fluorescence is recovered.
The fluorescent substrate cathepsin D and cathepsin E kinetic assays were performed at room temperature in 384-well microtiter plates (black with clear flat bottom, non binding surface plates from Corning) in a final volume of 51 μl. The test compounds were serially diluted in DMSO (15 concentrations, ⅓ dilution steps) and 1 μl of diluted compounds were mixed for 10 min with 40 μl of cathepsin D (from human liver, Calbiochem) diluted in assay buffer (100 mM sodium acetate, 0.05% BSA, pH 5.5; final concentration: 200 nM) or with 40 μl of recombinant human cathepsin E (R&D Systems) diluted in assay buffer (100 mM sodium acetate, 0.05% BSA, pH 4.5; final concentration: 0.01 nM). After addition of 10 μl of the cathepsin D substrate […]-MR121 diluted in cathepsin D assay buffer (final concentration: 300 nM) or […] cathepsin E substrate MR121-[…] diluted in cathepsin E assay buffer (final concentration: 300 nM), the plates were strongly shaken for 2 minutes. The enzymatic reaction was followed in a plate: vision reader (Perkin Elmer) (excitation wavelength: 630 nm; emission: 695 nm) for at least 30 minutes in a kinetic measurement detecting an increase of MR121 fluorescence during the reaction time. The slope in the linear range of the kinetic was calculated and the IC50 of the test compounds were determined using a four parameter equation for curve fitting.

Structures are written as SMILES.

T1 sequence (P11712 whole entry): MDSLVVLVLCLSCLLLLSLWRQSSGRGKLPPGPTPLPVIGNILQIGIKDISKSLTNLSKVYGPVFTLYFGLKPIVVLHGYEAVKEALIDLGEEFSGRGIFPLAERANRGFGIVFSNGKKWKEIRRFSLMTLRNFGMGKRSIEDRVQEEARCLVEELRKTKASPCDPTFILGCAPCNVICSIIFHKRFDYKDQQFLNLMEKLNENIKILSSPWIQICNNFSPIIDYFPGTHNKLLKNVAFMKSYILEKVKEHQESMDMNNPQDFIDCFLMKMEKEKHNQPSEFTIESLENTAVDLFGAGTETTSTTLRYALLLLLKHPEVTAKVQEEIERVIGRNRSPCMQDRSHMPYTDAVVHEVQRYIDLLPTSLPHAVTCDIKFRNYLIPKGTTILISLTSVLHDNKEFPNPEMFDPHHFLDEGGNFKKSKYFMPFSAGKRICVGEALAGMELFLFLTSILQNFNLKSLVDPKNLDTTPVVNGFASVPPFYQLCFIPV
T3 sequence (P07339 65-162 limits assumed): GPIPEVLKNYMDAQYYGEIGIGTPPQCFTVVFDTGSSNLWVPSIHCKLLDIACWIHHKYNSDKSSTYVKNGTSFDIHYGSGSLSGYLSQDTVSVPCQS
T3 sequence (P07339 169-412 limits assumed): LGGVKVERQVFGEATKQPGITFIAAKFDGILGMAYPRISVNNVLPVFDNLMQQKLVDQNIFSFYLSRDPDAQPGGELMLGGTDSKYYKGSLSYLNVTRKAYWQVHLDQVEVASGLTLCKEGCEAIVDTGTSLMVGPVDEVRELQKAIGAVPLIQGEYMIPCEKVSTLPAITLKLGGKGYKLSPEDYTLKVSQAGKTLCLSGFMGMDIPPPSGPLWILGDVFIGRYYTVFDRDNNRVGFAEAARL
T2 sequence (P08183 whole entry): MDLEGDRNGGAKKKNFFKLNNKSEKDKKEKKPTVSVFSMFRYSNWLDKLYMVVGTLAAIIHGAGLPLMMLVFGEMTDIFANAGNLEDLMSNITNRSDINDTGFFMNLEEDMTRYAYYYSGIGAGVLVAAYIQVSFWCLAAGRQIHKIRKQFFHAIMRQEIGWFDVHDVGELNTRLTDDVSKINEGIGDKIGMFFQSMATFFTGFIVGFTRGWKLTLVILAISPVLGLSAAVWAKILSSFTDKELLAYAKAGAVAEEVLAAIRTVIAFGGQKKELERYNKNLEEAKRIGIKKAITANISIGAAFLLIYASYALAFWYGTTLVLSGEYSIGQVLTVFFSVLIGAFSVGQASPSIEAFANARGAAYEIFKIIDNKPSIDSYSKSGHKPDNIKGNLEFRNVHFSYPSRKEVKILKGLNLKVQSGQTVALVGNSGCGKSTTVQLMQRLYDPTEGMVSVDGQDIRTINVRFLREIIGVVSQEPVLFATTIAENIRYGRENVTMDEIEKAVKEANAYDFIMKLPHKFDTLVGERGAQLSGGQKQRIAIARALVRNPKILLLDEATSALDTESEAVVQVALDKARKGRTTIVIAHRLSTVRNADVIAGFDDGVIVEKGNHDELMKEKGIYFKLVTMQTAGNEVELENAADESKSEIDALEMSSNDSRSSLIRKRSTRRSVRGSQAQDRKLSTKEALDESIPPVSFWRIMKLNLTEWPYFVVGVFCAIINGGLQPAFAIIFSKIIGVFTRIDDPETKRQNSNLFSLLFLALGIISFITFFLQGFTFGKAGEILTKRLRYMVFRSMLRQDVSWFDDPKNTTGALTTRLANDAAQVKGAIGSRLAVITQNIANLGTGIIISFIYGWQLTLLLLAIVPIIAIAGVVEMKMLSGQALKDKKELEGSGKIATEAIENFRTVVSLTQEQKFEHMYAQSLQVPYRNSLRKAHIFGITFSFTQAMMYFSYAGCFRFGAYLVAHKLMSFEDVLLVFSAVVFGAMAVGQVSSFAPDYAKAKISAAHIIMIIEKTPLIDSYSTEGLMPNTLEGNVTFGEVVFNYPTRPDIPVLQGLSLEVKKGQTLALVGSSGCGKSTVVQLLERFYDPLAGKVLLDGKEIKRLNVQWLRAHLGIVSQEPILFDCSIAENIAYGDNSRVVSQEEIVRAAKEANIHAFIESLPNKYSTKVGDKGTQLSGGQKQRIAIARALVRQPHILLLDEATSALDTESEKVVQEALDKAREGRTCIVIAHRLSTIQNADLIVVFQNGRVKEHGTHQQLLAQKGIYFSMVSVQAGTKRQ

As to `NC1=N[C@](CF)(c2cc(NC(=O)c3cnc(C(F)F)cn3)ccc2F)[C@H]2CC(F)(F)C[C@H]2O1` [Example 24, 5-Difluoromethyl-pyrazine-2-carboxylic acid [(S)-3-((1R,2R)-2-amino-6,6-difluoro-4-fluoromethyl-4,4a,5,6,7,7a-hexahydro-cyclopenta[e][1,3]oxazin-4-yl)-4-fluoro-phenyl]-amide], the IC50 at CYP2C9 is more than 10 µM; in series [2], more than 200 µM. Moreover, in “in vivo effect”, the in vivo effect result was “A (less than 50% of control @ 30 mg/kg p.o.)”. In series [1], the efflux ratio at 2 h was less than 3.

As for `COc1cnc(C(=O)Nc2ccc(F)c([C@@]3(C(F)F)N=C(N)O[C@@H]4CC(F)(F)C[C@@H]43)c2)cn1` [Example 42, 5-Methoxy-pyrazine-2-carboxylic acid [(S)-3-((1R,2R)-2-amino-4-difluoromethyl-6,6-difluoro-4,4a,5,6,7,7a-hexahydro-cyclopenta[e][1,3]oxazin-4-yl)-4-fluoro-phenyl]-amide], the IC50 at CYP2C9 is more than 10 µM; in series [2] it was more than 150 µM. Further, in “in vivo effect”, the in vivo effect entry is “A (less than 50% of control @ 30 mg/kg p.o.)”. Also, the efflux ratio at 2 h in series [1] was less than 3.

With `N#Cc1ccc(C(=O)Nc2ccc(F)c([C@@]3(C(F)F)N=C(N)O[C@@H]4CC(F)(F)C[C@@H]43)c2)nc1` [Example 36, 5-Cyano-pyridine-2-carboxylic acid [(S)-3-((1R,2R)-2-amino-4-difluoromethyl-6,6-difluoro-4,4a,5,6,7,7a-hexahydro-cyclopenta[e][1,3]oxazin-4-yl)-4-fluoro-phenyl]-amide], the IC50 at CYP2C9 was more than 10 µM; in series [2], more than 200 µM. Moreover, in “in vivo effect”, the in vivo effect result is “A (less than 50% of control @ 30 mg/kg p.o.)”. The efflux ratio at 2 h in series [1] is less than 3.

As to `NC1=N[C@](CF)(c2cc(NC(=O)c3ccc(F)cn3)ccc2F)[C@H]2CC(F)(F)C[C@H]2O1` [Example 7, 5-Fluoro-pyridine-2-carboxylic acid [(S)-3-((1R,2R)-2-amino-6,6-difluoro-4-fluoromethyl-4,4a,5,6,7,7a-hexahydro-cyclopenta[e][1,3]oxazin-4-yl)-4-fluoro-phenyl]-amide], the IC50 on CYP2C9 was more than 10 µM; in series [2], 93 µM. For the same molecule, in the series “in vivo effect”, the in vivo effect entry is listed as “A (less than 50% of control @ 30 mg/kg p.o.)”. Also, in series [1], the efflux ratio at 2 h is less than 3.

With `N#Cc1ccc(C(=O)Nc2ccc(F)c([C@@]3(CF)N=C(N)O[C@@H]4CC(F)(F)C[C@@H]43)c2)nc1` [Example 3, 5-Cyano-pyridine-2-carboxylic acid [(S)-3-((1R,2R)-2-amino-6,6-difluoro-4-fluoromethyl-4,4a,5,6,7,7a-hexahydro-cyclopenta[e][1,3]oxazin-4-yl)-4-fluoro-phenyl]-amide], the values for the IC50 (on CYP2C9; in series [2]) were more than 10 µM and more than 200 µM, respectively. In addition, the in vivo effect result in “in vivo effect” is reported as “A (less than 50% of control @ 30 mg/kg p.o.)”. Also, the efflux ratio at 2 h in series [1] was less than 3.
